Assays:
[1] = relative permittivity at various frequencies (dimensionless); conditions: 298.2 K; 101.3 kPa; Liquid; Frequency=0.01 MHz; Wayne Kerr model 6425B Digibridge
[2] = refractive index (Na D-line) (dimensionless); conditions: 298.2 K; 101.33 kPa; Liquid
[3] = refractive index (Na D-line) (dimensionless); xn = mol fraction of the nth substance listed; conditions: 298.2 K, 101.3 kPa, Liquid
[4] = relative permittivity at various frequencies (dimensionless); xn = mol fraction of the nth substance listed; conditions: 298.2 K, 101.3 kPa, Liquid, Frequency=0.1 MHz, Wayne Kerr model 6425B Digibridge

CCCCC(CC)CO (configuration not stated) [2-ethyl-1-hexanol]
Conditions	refractive index	relative permittivity
[1]	–	7.354
[2]	1.4316	–

CCCCC(CC)CO (configuration not stated) [2-ethyl-1-hexanol] + CC(C)(C)O
Conditions	refractive index, [3]	relative permittivity, [4]
x2 = 0	1.4316	7.354
x2 = 0.05	1.4304	7.487
x2 = 0.07	1.4298	7.598
x2 = 0.09	1.429	7.653
x2 = 0.1	1.4287	7.685
x2 = 0.2	1.427	8.057
x2 = 0.3	1.4235	8.506
x2 = 0.4	1.42	8.933
x2 = 0.5	1.4163	9.398
x2 = 0.6	1.4117	9.952

CCCCC(CC)CO (configuration not stated) [2-ethyl-1-hexanol] + CCCCO
Conditions	refractive index, [3]	relative permittivity, [4]
x2 = 0	1.4316	7.354
x2 = 0.1	1.4291	8.21
x2 = 0.15	1.4278	8.682
x2 = 0.3	1.4238	10.48
x2 = 0.42	1.4214	11.42
x2 = 0.53	1.4182	12.01
x2 = 0.63	1.415	12.9
x2 = 0.72	1.412	14.34
x2 = 0.8	1.4088	15.21
x2 = 0.9	1.4036	16.41

CCCCC(CC)CO (configuration not stated) [2-ethyl-1-hexanol] + CCO
Conditions	refractive index, [3]	relative permittivity, [4]
x2 = 0	1.4316	7.354
x2 = 0.12	1.4261	8.086
x2 = 0.23	1.4232	8.999
x2 = 0.32	1.4194	10.192
x2 = 0.4	1.4162	11.099
x2 = 0.47	1.4123	12.08
x2 = 0.53	1.4097	12.744
x2 = 0.64	1.4015	14.496
x2 = 0.7	1.3971	15.885
x2 = 0.82	1.386	18.259

CC(C)(C)O [2-methylpropan-2-ol]
Conditions	refractive index	relative permittivity
[1]	–	12.23
[2]	1.3864	–

CC(C)(C)O [2-methylpropan-2-ol] + C1CCCCC1
Conditions	refractive index, [3]	relative permittivity, [4]
x1 = 0.07	1.4241	2.051
x1 = 0.1	1.4226	2.058
x1 = 0.2	1.4179	2.089
x1 = 0.3	1.4138	2.308
x1 = 0.4	1.41	2.586
x1 = 0.5	1.4056	3.096
x1 = 0.6	1.4007	3.88
x1 = 0.8	1.3928	6.422

CC(C)(C)O [2-methylpropan-2-ol] + CCCCC(CC)CO
x1 = 1
Conditions	refractive index	relative permittivity
[3]	1.3864	–
[4]	–	12.23

CCCCO [butan-1-ol]
Conditions	refractive index	relative permittivity
[1]	–	17.5
[2]	1.3988	–

CCCCO [butan-1-ol] + CCCCC(CC)CO
x1 = 1
Conditions	refractive index	relative permittivity
[3]	1.3988	–
[4]	–	17.5

C1CCCCC1 [cyclohexane] + CCCCO
Conditions	refractive index, [3]	relative permittivity, [4]
x2 = 0.05	1.4206	2.439
x2 = 0.1	1.4191	2.683
x2 = 0.2	1.4162	3.112
x2 = 0.3	1.4132	3.952
x2 = 0.4	1.4109	4.888
x2 = 0.5	1.4085	6.713
x2 = 0.6	1.4061	8.451
x2 = 0.72	1.4035	10.848

C1CCCCC1 [cyclohexane] + CCO
Conditions	refractive index, [3]	relative permittivity, [4]
x2 = 0.1	1.4235	2.155
x2 = 0.24	1.4179	2.571
x2 = 0.42	1.4103	4.223
x2 = 0.55	1.4032	6.462
x2 = 0.66	1.3953	8.974
x2 = 0.74	1.3887	11.249
x2 = 0.81	1.3813	13.878
x2 = 0.9	1.3733	17.89

CCO [ethanol]
Conditions	refractive index	relative permittivity
[1]	–	23.646
[2]	1.3592	–

CCO [ethanol] + CCCCC(CC)CO
x1 = 1
Conditions	refractive index	relative permittivity
[3]	1.3592	–
[4]	–	23.646

From the NIST ThermoML archive (doi:10.1016/j.jct.2004.09.017)
